Molecular target: T1, F508del in NIH 3T3 cells (Homo sapiens, UniProt P13569, DEL508-508)
T1 construct: expressed in transfected cells
Assay: 3T3 assay: membrane potential optical assay for F508del correction
Assay type: cell-based, mouse
Details: for EC50: F508del NIH 3T3 cells, compound incubation 18-24 hours at 37° C., forskolin activation, read-out: 3T3 EC50; for Emax: NIH3T3, F508del NIH 3T3 cells, efficacy compared to lumacaftor in combination with acutely added 300 nM Ivacaftor, read-out: 3T3 Max Activity (%)
Excerpt: a. Membrane Potential Optical Methods for Assaying F508del Modulation Properties of Compounds
The assay utilizes fluorescent voltage sensing dyes to measure changes in membrane potential using a fluorescent plate reader (e.g., FLIPR III, Molecular Devices, Inc.) as a readout for increase in functional F508del in NIH 3T3 cells. The driving force for the response is the creation of a chloride ion gradient in conjunction with channel activation by a single liquid addition step after the cells have previously been treated with compounds and subsequently loaded with a voltage sensing dye.
b. Identification of Corrector Compounds
To identify correctors of F508del, a single-addition HTS assay format was developed. This HTS assay utilizes fluorescent voltage sensing dyes to measure changes in membrane potential on the FLIPR III as a measurement for increase in gating (conductance) of F508del in F508del NIH 3T3 cells. The F508del NIH 3T3 cell cultures were incubated with the corrector compounds at a range of concentrations for 18-24 hours at 37° C., and subsequently loaded with a redistribution dye. The driving force for the response is a Cl^− ion gradient in conjunction with channel activation with forskolin in a single liquid addition step using a fluorescent plate reader such as FLIPR III.
Bath Solution #1: (in mM) NaCl 160, KCl 4.5, CaCl2 2, MgCl2 1, HEPES 10, pH 7.4 with NaOH.
Chloride-free bath solution: Chloride salts in Bath Solution #1 (above) are substituted with gluconate salts.
NIH3T3 mouse fibroblasts stably expressing F508del are used for optical measurements of membrane potential. The cells are maintained at 37° C. in 5% CO2 and 90% humidity in Dulbecco's modified Eagle's medium supplemented with 2 mM glutamine, 10% fetal bovine serum, 1×NEAA, b-ME, 1× pen/strep, and 25 mM HEPES in 175 cm^2 culture flasks. For all optical assays, the cells were seeded at ˜20,000/well in 384-well Matrigel-coated plates. For the correction assays, the cells are cultured at 37° C. with and without compounds for 16-24 hours.

T1 sequence (P13569 with tags, fused parts or gaps DEL508-508): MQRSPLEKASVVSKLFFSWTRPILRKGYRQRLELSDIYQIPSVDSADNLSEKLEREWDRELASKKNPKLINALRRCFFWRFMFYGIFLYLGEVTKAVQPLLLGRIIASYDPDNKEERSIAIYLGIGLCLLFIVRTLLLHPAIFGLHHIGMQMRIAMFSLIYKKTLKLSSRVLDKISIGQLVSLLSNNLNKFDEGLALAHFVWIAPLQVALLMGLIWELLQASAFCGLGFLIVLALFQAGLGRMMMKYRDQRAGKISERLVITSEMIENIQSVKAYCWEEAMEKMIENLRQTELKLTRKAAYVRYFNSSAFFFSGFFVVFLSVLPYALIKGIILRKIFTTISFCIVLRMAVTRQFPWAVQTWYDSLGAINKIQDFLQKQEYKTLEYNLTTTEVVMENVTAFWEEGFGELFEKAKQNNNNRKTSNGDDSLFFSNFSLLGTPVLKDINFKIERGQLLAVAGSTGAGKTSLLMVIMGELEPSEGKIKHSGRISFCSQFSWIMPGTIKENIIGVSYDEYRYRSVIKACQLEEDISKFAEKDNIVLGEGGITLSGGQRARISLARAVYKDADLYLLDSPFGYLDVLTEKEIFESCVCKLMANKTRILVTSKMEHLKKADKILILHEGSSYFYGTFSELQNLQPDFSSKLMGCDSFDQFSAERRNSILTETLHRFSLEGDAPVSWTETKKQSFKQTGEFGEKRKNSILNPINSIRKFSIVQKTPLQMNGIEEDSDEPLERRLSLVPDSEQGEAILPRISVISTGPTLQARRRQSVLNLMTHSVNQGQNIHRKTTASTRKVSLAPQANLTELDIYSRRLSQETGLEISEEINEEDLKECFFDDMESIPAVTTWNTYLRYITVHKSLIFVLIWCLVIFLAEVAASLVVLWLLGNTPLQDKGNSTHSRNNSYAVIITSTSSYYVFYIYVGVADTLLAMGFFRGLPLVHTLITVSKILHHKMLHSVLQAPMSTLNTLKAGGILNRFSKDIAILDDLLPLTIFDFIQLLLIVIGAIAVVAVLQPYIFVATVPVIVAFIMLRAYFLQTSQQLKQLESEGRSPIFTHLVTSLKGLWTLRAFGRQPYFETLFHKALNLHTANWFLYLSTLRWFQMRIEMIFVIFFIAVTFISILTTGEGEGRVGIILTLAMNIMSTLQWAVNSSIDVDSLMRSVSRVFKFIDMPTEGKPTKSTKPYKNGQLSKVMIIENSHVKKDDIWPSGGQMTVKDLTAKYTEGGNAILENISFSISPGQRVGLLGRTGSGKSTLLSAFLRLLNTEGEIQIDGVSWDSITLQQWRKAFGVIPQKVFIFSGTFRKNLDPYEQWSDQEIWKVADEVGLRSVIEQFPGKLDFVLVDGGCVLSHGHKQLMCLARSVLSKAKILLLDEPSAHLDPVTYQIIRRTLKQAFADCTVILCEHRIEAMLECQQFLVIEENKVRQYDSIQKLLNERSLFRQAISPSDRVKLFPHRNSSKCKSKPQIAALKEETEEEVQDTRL

Row | SMILES | EC50 [µM] | Emax [%]
1 | Cc1cccc(C)c1-c1cc2nc(n1)NS(=O)(=O)c1cccc(c1)NC(=O)c1cc(ccc1NC1CCCC(N)C1)O2 (stereo not shown) [Compound 101] | 3 to 30 | > 60
2 | CNCCN(C)c1ccc2cc1C(=O)Nc1cccc(c1)S(=O)(=O)Nc1nc(cc(-c3c(C)cccc3C)n1)O2 [Compound 104] | 3 to 30 | 30 to 60
3 | Cc1cccc(C)c1-c1cc2nc(n1)NS(=O)(=O)c1cccc(c1)NC(=O)[C@H]1C[C@@H](CN(C(=O)OC(C)(C)C)C1)O2 (single isomer, unassigned) [Compound 4] | < 1 | > 60
4 | Cc1cccc(C)c1-c1cc2nc(n1)NS(=O)(=O)c1cccc(c1)NC(=O)c1cc(ccc1N1CCC(O)CC1)O2 [Compound 100] | 3 to 30 | > 60
5 | Cc1cccc(C)c1-c1cc2nc(n1)NS(=O)(=O)c1cccc(c1)NC(=O)c1cc(ccc1N1CCNCC1)O2 [Compound 106] | 3 to 30 | > 60
6 | Cc1cccc(C)c1-c1cc2nc(n1)NS(=O)(=O)c1cccc(c1)NC(=O)C(N)CCO2 (stereo not shown) [Compound 96] | 1 to 3 | > 60
7 | Cc1cccc(C)c1-c1cc2nc(n1)NS(=O)(=O)c1cccc(c1)NC(=O)CCCCCO2 [Compound 97] | < 1 | > 60
8 | Cc1cccc(C)c1-c1cc2nc(n1)NS(=O)(=O)c1cccc(c1)NC(=O)c1cc(ccc1N1CCCCC1)O2 [Compound 56, 5-(2,6-Dimethylphenyl)-9,9-dioxo-18-(1-piperidyl)-2-oxa-9λ^6-thia-6,8,15,23-tetraazatetracyclo[15.3.1.13,7.110,14]tricosa-1(21),3,5,7(23),10(22),11,13,17,19-nonaen-16-one] | < 1 | > 60
9 | CNC1CCCCC1N(C)c1ccc2cc1C(=O)Nc1cccc(c1)S(=O)(=O)Nc1nc(cc(-c3c(C)cccc3C)n1)O2 (stereo not shown) [Compound 102] |  | 30 to 60
10 | Cc1cccc(C)c1-c1cc2nc(n1)NS(=O)(=O)c1cccc(c1)NC(=O)C(NC(=O)OC(C)(C)C)CCO2 (stereo not shown) [Compound 95] | < 1 | > 60
11 | Cc1cccc(C)c1-c1cc2nc(n1)NS(=O)(=O)c1cccc(c1)NC(=O)c1cc(cc(N3CCNCC3)c1)O2 [Compound 99] | 3 to 30 | 30 to 60
12 | Cc1cccc(C)c1-c1cc2nc(n1)NS(=O)(=O)c1cccc(c1)NC(=O)C1CC(CN1C(=O)OC(C)(C)C)O2 (stereo not shown) [Compound 98] | 1 to 3 | > 60
13 | Cc1cccc(C)c1-c1cc2nc(n1)NS(=O)(=O)c1cccc(c1)NC(=O)c1cc(ccc1NC1CCCCC1N)O2 (stereo not shown) [Compound 103] | 1 to 3 | > 60

Second part, the molecule after the results:

Row | EC50 [µM] | Emax [%] | SMILES
14 | 3 to 30 | > 60 | O=C1Nc2cccc(c2)S(=O)(=O)Nc2nc(cc(-c3ccccc3O)n2)Oc2cccc1c2 [Compound 84]
15 |  | < 30 | Cc1nn(C)c(C)c1-c1cc2nc(n1)NS(=O)(=O)c1cccc(c1)NC(=O)c1cccc(c1)O2 [Compound 85]
16 |  | < 30 | Cc1ccccc1-c1cc2nc(n1)NS(=O)(=O)c1cccc(c1)N(C)C(=O)c1ccc(cc1)O2 [Compound 113]
17 | < 1 | > 60 | Cc1cccc(C)c1-c1cc2nc(n1)NS(=O)(=O)c1cccc(c1)NC(=O)c1cccc(c1C)O2 (single isomer, unassigned) [Compound 60, (+)-5-(2,6-Dimethylphenyl)-21-methyl-9,9-dioxo-2-oxa-9λ^6-thia-6,8,15,23-tetraazatetracyclo[15.3.1.13,7.110,14]tricosa-1(20),3,5,7(23),10(22),11,13,17(21),18-nonaen-16-one]
18 | < 1 |  | Cc1cccc(C)c1-c1cc2nc(n1)NS(=O)(=O)c1cccc(c1)NC(=O)c1cccc(c1C)O2 (single isomer, unassigned) [Compound 61, (−)-5-(2,6-dimethylphenyl)-21-methyl-9,9-dioxo-2-oxa-9λ^6-thia-6,8,15,23-tetraazatetracyclo[15.3.1.13,7.110,14]tricosa-1(20),3,5,7(23),10(22),11,13,17(21),18-nonaen-16-one]
19 | 3 to 30 | > 60 | Nc1ccccc1-c1cc2nc(n1)NS(=O)(=O)c1cccc(c1)NC(=O)c1cccc(c1)O2 [Compound 83]
20 | 1 to 3 | > 60 | O=C1Nc2cccc(c2)S(=O)(=O)Nc2nc(cc(-c3ccccc3)n2)Oc2cccc1c2 [Compound 82]
21 | < 1 | > 60 | Cc1cccc(C)c1-c1cc2nc(n1)NS(=O)(=O)c1cccc(c1)NC(=O)c1cccc(c1Cl)O2 [Compound 116]
22 | 3 to 30 | > 60 | O=C1Nc2cccc(c2)S(=O)(=O)Nc2nc(cc(-c3ccco3)n2)Oc2cccc1c2 [Compound 86]
23 | 3 to 30 | > 60 | Cc1ccccc1-c1cc2nc(n1)NS(=O)(=O)c1cccc(c1)N(C)C(=O)c1cccc(c1)O2 [Compound 115]
24 | 1 to 3 | > 60 | Cc1cccc(C)c1-c1cc2nc(n1)NS(=O)(=O)c1cccc(c1)NC(=O)c1cc(ccc1NCCN)O2 [Compound 105]
25 | 1 to 3 | > 60 | COc1ccccc1-c1cc2nc(n1)NS(=O)(=O)c1cccc(c1)NC(=O)c1cccc(c1)O2 [Compound 87]
26 | < 1 | > 60 | CC1(C)CCCCC1c1cc2nc(n1)NS(=O)(=O)c1cccc(c1)NC(=O)c1cccc(c1)O2 (stereo not shown) [Compound 75, 5-(2,2-Dimethylcyclohexyl)-9,9-dioxo-2-oxa-9λ^6-thia-6,8,15,23-tetraazatetracyclo[15.3.1.13,7.110,14]tricosa-1(20),3,5,7(23),10(22),11,13,17(21),18-nonaen-16-one]
27 | 1 to 3 | 30 to 60 | Cc1cccc(C)c1-c1cc2nc(n1)NS(=O)(=O)c1cccc(c1)NC(=O)c1cccc(c1)CCO2 [Compound 94]
28 | < 1 | > 60 | Cc1cccc(C)c1-c1cc2nc(n1)NS(=O)(=O)c1cccc(c1)NC(=O)c1cccc(c1C)O2 (racemic) [Compound 59, 5-(2,6-Dimethylphenyl)-21-methyl-9,9-dioxo-2-oxa-9λ^6-thia-6,8,15,23-tetraazatetracyclo[15.3.1.13,7.110,14]tricosa-1(20),3,5,7(23),10(22),11,13,17(21),18-nonaen-16-one]
